The text below walks through data of patent US9936701B2, “Herbicidal compounds” (Syngenta Participations AG, priority 2013, dated 2018).

For one experiment, the system named is a variety of test species. Description: Post-emergence herbicidal activity (glasshouse, sprayed after 8 days cultivation, evaluated after 13 days). It is filed as in vivo. Also noted: key: 5=total damage to plant; 0=no damage to plant. To be noted: Abutilon theophrasti, rate 1000 g/Ha, scale 0-5. Here is the method:
(§1) Seeds of a variety of test species were sown in standard soil in pots. After 8 days cultivation (post-emergence) under controlled conditions in a glasshouse (at 24/16° C., day/night; 14 hours light; 65% humidity), the plants were sprayed with an aqueous spray solution derived from the formulation of the technical active ingredient in acetone/water (50:50) solution containing 0.5% Tween 20 (polyoxyethelyene sorbitan monolaurate, CAS RN 9005-64-5). The test plants were then grown in a glasshouse under controlled conditions (at 24/16° C., day/night; 14 hours light; 65% humidity) and watered twice daily. After 13 days, the test was evaluated (5=total damage to plant; 0=no damage to plant).
Regarding `CC1=C(I)C(=O)N(c2cc(C(C)(C)C)on2)[C@H]1O` [A17], the “ABUTH (Abutilon theophrasti) damage score, application post-emergence” value is reported as 5.
Same read-out and setting: with `CC(C)C1=C(Cl)C(=O)N(c2cc(C(C)(C)C)on2)C1O` (stereo not drawn) [A18] the figure was 5; with `CCCC1=C(Cl)C(=O)N(c2cc(C(C)(C)C)on2)C1O` (stereo not drawn) [A27], 5; with `CCOc1cc(N2C(=O)C(Cl)=C(C)C2O)no1` (stereo not drawn) [A32], 5.
Same read-out and setting: with `CCC(C)(CC#N)c1cc(N2C(=O)C(Cl)=C(C)C2O)no1` (stereo not drawn) [A59] the figure was 5.

The same experiment, now with this note: Alopecurus myosuroides, rate 1000 g/Ha, scale 0-5.
With `CC1=C(I)C(=O)N(c2cc(C(C)(C)C)on2)[C@H]1O` [A17], the “ALOMY (Alopecurus myosuroides) damage score, application post-emergence” value (from here on “ALOMY … application post-emergence”) was determined as 5.
Regarding `CC(C)C1=C(Cl)C(=O)N(c2cc(C(C)(C)C)on2)C1O` (stereo not drawn) [A18], the “ALOMY … application post-emergence” value stood at 5.
As for `CCCC1=C(Cl)C(=O)N(c2cc(C(C)(C)C)on2)C1O` (stereo not drawn) [A27], the “ALOMY … application post-emergence” value came out at 5.
On the same count and under the same terms, with `CCOc1cc(N2C(=O)C(Cl)=C(C)C2O)no1` (stereo not drawn) [A32] the figure was 2.
Regarding `CCC(C)(CC#N)c1cc(N2C(=O)C(Cl)=C(C)C2O)no1` (stereo not drawn) [A59], the “ALOMY … application post-emergence” value is on record as 5.

Still in this experiment, the particulars now being: Amaranthus retroflexus, rate 1000 g/Ha, scale 0-5.
Take `CC1=C(I)C(=O)N(c2cc(C(C)(C)C)on2)[C@H]1O` [A17]: the “AMARE (Amaranthus retroflexus) damage score, application post-emergence” value (shortened to “AMARE … application post-emergence”) was determined as 5.
On to `CC(C)C1=C(Cl)C(=O)N(c2cc(C(C)(C)C)on2)C1O` (stereo not drawn) [A18], for which the “AMARE … application post-emergence” value is recorded as 4.
Turning to `CCCC1=C(Cl)C(=O)N(c2cc(C(C)(C)C)on2)C1O` (stereo not drawn) [A27], the “AMARE … application post-emergence” value amounted to 5.
On the same count and under the same terms, with `CCOc1cc(N2C(=O)C(Cl)=C(C)C2O)no1` (stereo not drawn) [A32] the figure was 2.
As for `CCC(C)(CC#N)c1cc(N2C(=O)C(Cl)=C(C)C2O)no1` (stereo not drawn) [A59], the “AMARE … application post-emergence” value stood at 5.

The same experiment, now with this note: Echinochloa crus-galli, rate 1000 g/Ha, scale 0-5.
Take `CC1=C(I)C(=O)N(c2cc(C(C)(C)C)on2)[C@H]1O` [A17]: the “ECHCG (Echinochloa crus-galli) damage score, application post-emergence” value is 5.
On the same count and under the same terms, under `CC(C)C1=C(Cl)C(=O)N(c2cc(C(C)(C)C)on2)C1O` (stereo not drawn) [A18] stands 5.
On to `CCCC1=C(Cl)C(=O)N(c2cc(C(C)(C)C)on2)C1O` (stereo not drawn) [A27], for which the “ECHCG (Echinochloa crus-galli) damage score, application post-emergence” value is reported as 5.
Still for that read-out and setting: with `CCOc1cc(N2C(=O)C(Cl)=C(C)C2O)no1` (stereo not drawn) [A32] the figure was 5; with `CCC(C)(CC#N)c1cc(N2C(=O)C(Cl)=C(C)C2O)no1` (stereo not drawn) [A59], 5.

Staying with this experiment, now noted: Setaria faberi, rate 1000 g/Ha, scale 0-5.
Consider `CC1=C(I)C(=O)N(c2cc(C(C)(C)C)on2)[C@H]1O` [A17], for which the “SETFA (Setaria faberi) damage score, application post-emergence” value (“SETFA (Setaria faberi) damage score” below) was 5.
On to `CC(C)C1=C(Cl)C(=O)N(c2cc(C(C)(C)C)on2)C1O` (stereo not drawn) [A18], for which the “SETFA (Setaria faberi) damage score” value is on record as 5.
With `CCCC1=C(Cl)C(=O)N(c2cc(C(C)(C)C)on2)C1O` (stereo not drawn) [A27], the “SETFA (Setaria faberi) damage score” value is reported as 5.
The same measure, in the same setting: with `CCOc1cc(N2C(=O)C(Cl)=C(C)C2O)no1` (stereo not drawn) [A32] the figure was 2; with `CCC(C)(CC#N)c1cc(N2C(=O)C(Cl)=C(C)C2O)no1` (stereo not drawn) [A59], 5.

The experiment is the same for the next values; noted with them: Zea mays, rate 1000 g/Ha, scale 0-5.
For the compound `CC1=C(I)C(=O)N(c2cc(C(C)(C)C)on2)[C@H]1O` [A17], the “ZEAMX (Zea mays) damage score, application post-emergence” value (shortened to “ZEAMX (Zea mays) damage score”) stood at 4.
Same read-out and setting: under `CC(C)C1=C(Cl)C(=O)N(c2cc(C(C)(C)C)on2)C1O` (stereo not drawn) [A18] stands 3; under `CCCC1=C(Cl)C(=O)N(c2cc(C(C)(C)C)on2)C1O` (stereo not drawn) [A27], 4.
For the compound `CCOc1cc(N2C(=O)C(Cl)=C(C)C2O)no1` (stereo not drawn) [A32], the “ZEAMX (Zea mays) damage score” value amounted to 2.
`CCC(C)(CC#N)c1cc(N2C(=O)C(Cl)=C(C)C2O)no1` (stereo not drawn) [A59]: the “ZEAMX (Zea mays) damage score” value is 5.

The test system of the next experiment is a variety of test species. Description: Pre-emergence herbicidal activity (glasshouse, sprayed one day after sowing, evaluated after 13 days). It is filed as in vivo. Also noted: key: 5=total damage to plant; 0=no damage to plant. To be noted: ABUTH, application pre-emergence, rate 1000 g/Ha, scale 0-5. The procedure: as §1, with “After” for “After 8 days”, “for one day (pre-emergence)” for “(post-emergence)”
Take `CC1=C(I)C(=O)N(c2cc(C(C)(C)C)on2)[C@H]1O` [A17]: the “Pre-emergence herbicidal damage score, ABUTH” value turned out to be 3.
On the same count and under the same terms, under `CC(C)C1=C(Cl)C(=O)N(c2cc(C(C)(C)C)on2)C1O` (stereo not drawn) [A18] stands 4; under `CCCC1=C(Cl)C(=O)N(c2cc(C(C)(C)C)on2)C1O` (stereo not drawn) [A27], 5; under `CCOc1cc(N2C(=O)C(Cl)=C(C)C2O)no1` (stereo not drawn) [A32], 4.
On the same count and under the same terms, under `CCC(C)(CC#N)c1cc(N2C(=O)C(Cl)=C(C)C2O)no1` (stereo not drawn) [A59] stands 5.

Staying with this experiment, now noted: ALOMY, application pre-emergence, rate 1000 g/Ha, scale 0-5.
As to `CC1=C(I)C(=O)N(c2cc(C(C)(C)C)on2)[C@H]1O` [A17], the “Pre-emergence herbicidal damage score, ALOMY” value is 2.
The same measure, in the same setting: with `CC(C)C1=C(Cl)C(=O)N(c2cc(C(C)(C)C)on2)C1O` (stereo not drawn) [A18] the figure was 4.
As for `CCCC1=C(Cl)C(=O)N(c2cc(C(C)(C)C)on2)C1O` (stereo not drawn) [A27], the “Pre-emergence herbicidal damage score, ALOMY” value is given as 4.
With `CCOc1cc(N2C(=O)C(Cl)=C(C)C2O)no1` (stereo not drawn) [A32], the “Pre-emergence herbicidal damage score, ALOMY” value stood at 2.
With `CCC(C)(CC#N)c1cc(N2C(=O)C(Cl)=C(C)C2O)no1` (stereo not drawn) [A59], the “Pre-emergence herbicidal damage score, ALOMY” value was 5.

The experiment is the same for the next values; noted with them: AMARE, application pre-emergence, rate 1000 g/Ha, scale 0-5.
`CC1=C(I)C(=O)N(c2cc(C(C)(C)C)on2)[C@H]1O` [A17]: the “Pre-emergence herbicidal damage score, AMARE” value worked out at 5.
Same read-out and setting: under `CC(C)C1=C(Cl)C(=O)N(c2cc(C(C)(C)C)on2)C1O` (stereo not drawn) [A18] stands 1; under `CCCC1=C(Cl)C(=O)N(c2cc(C(C)(C)C)on2)C1O` (stereo not drawn) [A27], 5.
The same measure, in the same setting: under `CCOc1cc(N2C(=O)C(Cl)=C(C)C2O)no1` (stereo not drawn) [A32] stands 1; under `CCC(C)(CC#N)c1cc(N2C(=O)C(Cl)=C(C)C2O)no1` (stereo not drawn) [A59], 5.

Staying with this experiment, now noted: ECHCG, application pre-emergence, rate 1000 g/Ha, scale 0-5.
Take `CC1=C(I)C(=O)N(c2cc(C(C)(C)C)on2)[C@H]1O` [A17]: the “Pre-emergence herbicidal damage score, ECHCG” value is on record as 5.
Still for that read-out and setting: under `CC(C)C1=C(Cl)C(=O)N(c2cc(C(C)(C)C)on2)C1O` (stereo not drawn) [A18] stands 2; under `CCCC1=C(Cl)C(=O)N(c2cc(C(C)(C)C)on2)C1O` (stereo not drawn) [A27], 5.
Same read-out and setting: with `CCOc1cc(N2C(=O)C(Cl)=C(C)C2O)no1` (stereo not drawn) [A32] the figure was 3.
In the case of `CCC(C)(CC#N)c1cc(N2C(=O)C(Cl)=C(C)C2O)no1` (stereo not drawn) [A59], the “Pre-emergence herbicidal damage score, ECHCG” value turned out to be 5.

Staying with this experiment, now noted: SETFA, application pre-emergence, rate 1000 g/Ha, scale 0-5.
In the case of `CC1=C(I)C(=O)N(c2cc(C(C)(C)C)on2)[C@H]1O` [A17], the “Pre-emergence herbicidal damage score, SETFA” value came to 3.
For the compound `CC(C)C1=C(Cl)C(=O)N(c2cc(C(C)(C)C)on2)C1O` (stereo not drawn) [A18], the “Pre-emergence herbicidal damage score, SETFA” value came to 3.
Same read-out and setting: with `CCCC1=C(Cl)C(=O)N(c2cc(C(C)(C)C)on2)C1O` (stereo not drawn) [A27] the figure was 4.
Same read-out and setting: with `CCOc1cc(N2C(=O)C(Cl)=C(C)C2O)no1` (stereo not drawn) [A32] the figure was 1.
As to `CCC(C)(CC#N)c1cc(N2C(=O)C(Cl)=C(C)C2O)no1` (stereo not drawn) [A59], the “Pre-emergence herbicidal damage score, SETFA” value was 5.

The experiment is the same for the next values; noted with them: ZEAMX, application pre-emergence, rate 1000 g/Ha, scale 0-5.
Consider `CC1=C(I)C(=O)N(c2cc(C(C)(C)C)on2)[C@H]1O` [A17], for which the “Pre-emergence herbicidal damage score, ZEAMX” value is given as 2.
Still for that read-out and setting: with `CC(C)C1=C(Cl)C(=O)N(c2cc(C(C)(C)C)on2)C1O` (stereo not drawn) [A18] the figure was 1; with `CCCC1=C(Cl)C(=O)N(c2cc(C(C)(C)C)on2)C1O` (stereo not drawn) [A27], 4.
With `CCOc1cc(N2C(=O)C(Cl)=C(C)C2O)no1` (stereo not drawn) [A32], the “Pre-emergence herbicidal damage score, ZEAMX” value came to 1.
Turning to `CCC(C)(CC#N)c1cc(N2C(=O)C(Cl)=C(C)C2O)no1` (stereo not drawn) [A59], the “Pre-emergence herbicidal damage score, ZEAMX” value turned out to be 5.
